Results reported in the supplement of paper PMC10307832.

Experiments:
Test in all cases: relative viability (nuclei count vs DMSO), 5 days (fraction); higher = more cells survive
Carboplatin + Trametinib = compound: C1CC(C1)(C(=O)O)C(=O)O.[NH2-].[NH2-].[Pt+2] [Carboplatin] + CC(=O)Nc1cccc(-n2c(=O)n(C3CC3)c(=O)c3c(Nc4ccc(I)cc4F)n(C)c(=O)c(C)c32)c1 [Trametinib] (partner 0.02 µM)
Procedure, shortened: (§1)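 For relative viability, nuclei counts in treated wells were divided by those in vehicle wells. Lung cancer cell lines had been pin-tool dosed in 1536-well plates the day after seeding and cultured for 5 days, then fixed and stained in one step (final 0.05% Triton X-100, 1% formaldehyde, 1 ug/ml Hoechst) and imaged at 4×. Doses were one drug alone or a fixed anchor-drug dose plus five library-drug doses (not always all listed) in √10 steps, and values are duplicate-plate medians.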

Carboplatin + Pemetrexed = compound: C1CC(C1)(C(=O)O)C(=O)O.[NH2-].[NH2-].[Pt+2] [Carboplatin] + Nc1nc2[nH]cc(CCc3ccc(C(=O)N[C@@H](CCC(=O)O)C(=O)O)cc3)c2c(=O)[nH]1 [Pemetrexed] (partner 0.2 µM)
Procedure, shortened: as §1

GSK126 + Luminespib = compound: CC[C@H](C)N1C=C(C2=C(C=C(C=C21)C3=CN=C(C=C3)N4CCNCC4)C(=O)NCC5=C(C=C(NC5=O)C)C)C [GSK126] + CCNC(=O)c1noc(-c2cc(C(C)C)c(O)cc2O)c1-c1ccc(CN2CCOCC2)cc1 [Luminespib] (partner 0.01 µM)
Procedure, shortened: as §1

GSK126 + AZD7762 = compound: CC[C@H](C)N1C=C(C2=C(C=C(C=C21)C3=CN=C(C=C3)N4CCNCC4)C(=O)NCC5=C(C=C(NC5=O)C)C)C [GSK126] + NC(=O)Nc1cc(-c2cccc(F)c2)sc1C(=O)N[C@H]1CCCNC1 [AZD7762] (partner 0.2 µM)
Procedure, shortened: as §1

Row | Cell Line | relative viability (Carboplatin + Trametinib; first compound 0.08 µM) | relative viability (Carboplatin + Trametinib; first compound 0.253 µM) | relative viability (Carboplatin + Trametinib; first compound 0.8 µM) | relative viability (Carboplatin + Trametinib; first compound 2.53 µM) | relative viability (Carboplatin + Trametinib; first compound 8 µM) | relative viability (Carboplatin + Pemetrexed; first compound 0.08 µM) | relative viability (Carboplatin + Pemetrexed; first compound 0.253 µM) | relative viability (Carboplatin + Pemetrexed; first compound 0.8 µM) | relative viability (Carboplatin + Pemetrexed; first compound 2.53 µM) | relative viability (Carboplatin + Pemetrexed; first compound 8 µM) | relative viability (GSK126 + Luminespib; first compound 0.08 µM) | relative viability (GSK126 + Luminespib; first compound 0.253 µM) | relative viability (GSK126 + Luminespib; first compound 0.8 µM) | relative viability (GSK126 + Luminespib; first compound 2.53 µM) | relative viability (GSK126 + Luminespib; first compound 8 µM) | relative viability (GSK126 + AZD7762; first compound 0.08 µM) | relative viability (GSK126 + AZD7762; first compound 0.253 µM) | relative viability (GSK126 + AZD7762; first compound 0.8 µM) | relative viability (GSK126 + AZD7762; first compound 2.53 µM) | relative viability (GSK126 + AZD7762; first compound 8 µM)
1 | NCI-H1793 | 0.39 | 0.455 | 0.48 | 0.386 | 0.431 | 1.1 | 0.908 | 0.918 | 0.866 | 0.93 | 0.152 | 0.177 | 0.164 | 0.258 | 0.152 | 0.646 | 0.394 | 0.299 | 0.592 | 0.292
2 | NCI-H441 | 0.556 | 0.448 | 0.479 | 0.467 | 0.371 | 0.289 | 0.258 | 0.271 | 0.243 | 0.241 | 0.361 | 0.283 | 0.28 | 0.35 | 0.349 | 1.29 | 0.965 | 1.03 | 1.1 | 1.08
3 | RERF-LC-KJ | 0.863 | 0.876 | 0.785 | 0.696 | 0.53 | 0.492 | 0.475 | 0.479 | 0.458 | 0.438 | 1.22 | 1.09 | 1.31 | 1.3 | 1.16 | – | 1.09 | 0.959 | 1.1 | 1.03
4 | H3255 | 0.699 | 0.83 | 0.754 | 0.588 | 0.474 | 0.589 | 0.531 | 0.58 | 0.529 | 0.563 | 0.988 | 0.968 | 0.898 | 0.95 | 1.01 | 1.08 | 0.887 | 0.938 | 1.05 | 0.788
5 | A-427 | 0.85 | 0.812 | 0.747 | 0.81 | 0.739 | 1.03 | 1.01 | 0.942 | 0.897 | 1.05 | 1.29 | 0.87 | 0.82 | 0.884 | 0.769 | 0.82 | 0.703 | 0.667 | 0.825 | 0.542
